Laboratory results published in publication PMC10349828, “Mechanistic investigation of a D to N mutation in DAHP synthase that dictates carbon flux into the shikimate pathway in yeast” (Communications Chemistry, 2023).

Experiments:
[1] = target: T1, Aro3 (Saccharomyces cerevisiae, UniProt P14843); assay: isothermal titration calorimetry; type: binding
T1 construct: full-length ORF in pET21, C-terminal His6 tag, expressed in E. coli Rosetta 2 (DE3); Ni-NTA and gel filtration; dimer in crystal

[2] = target: T2, Aro3 (Saccharomyces cerevisiae, UniProt P14843, D154N); assay: DAHP formation, periodate-thiobarbituric acid assay at […] nm; type: biochemical; settings: read-out: % remaining activity at 10 mM
T2 construct: full-length ORF in pET21, C-terminal His6 tag, expressed in E. coli Rosetta 2 (DE3); Ni-NTA and gel filtration; dimer in crystal

[3] = target: T3, Aro3 (Saccharomyces cerevisiae, UniProt P14843, K222L); assay: as above; type: biochemical; settings: read-out: % inhibition at 0.1 mM
T3 construct: full-length ORF in pET21, C-terminal His6 tag, expressed in E. coli Rosetta 2 (DE3); Ni-NTA and gel filtration; dimer in crystal

[4] = target: T1, Aro3; assay: as above; type: biochemical; settings: read-out: % inhibition at 0.1 mM
[5] = target: T2, Aro3; assay: isothermal titration calorimetry; type: binding

T2 sequence (P14843 whole entry D154N): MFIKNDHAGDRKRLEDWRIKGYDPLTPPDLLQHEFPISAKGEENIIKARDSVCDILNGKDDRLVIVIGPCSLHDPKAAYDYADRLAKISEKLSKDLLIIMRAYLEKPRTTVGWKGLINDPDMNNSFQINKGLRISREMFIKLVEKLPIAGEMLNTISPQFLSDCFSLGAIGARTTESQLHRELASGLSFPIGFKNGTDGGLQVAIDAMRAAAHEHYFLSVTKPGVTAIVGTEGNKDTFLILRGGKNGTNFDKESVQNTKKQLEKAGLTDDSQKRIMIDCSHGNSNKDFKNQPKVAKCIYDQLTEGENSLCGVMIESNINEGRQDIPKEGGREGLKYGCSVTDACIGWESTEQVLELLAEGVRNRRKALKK
T1 sequence (P14843 whole entry): as the sequence (P14843 whole entry D154N) above, with N154D counted along it
T3 sequence (P14843 whole entry K222L): as the sequence (P14843 whole entry D154N) above, with N154D, K222L counted along it

## N[C@@H](Cc1ccccc1)C(=O)O [L-Phe]
[1]
  Kd: 31.4 µM
[2]
  remaining activity at 10000 µM: 71.2%
[3]
  inhibition at 100 µM: ~50%
[4]
  inhibition at 100 µM: ~50%
[5]
  Kd: 336 ± 31.2 µM
